From patent US4424218A, “Novel 3 α-amino steroids” (Roussel Uclaf, priority 1979, dated 1984)
Where a name gives a salt, the structure may show the parent alone. Read-outs that look alike come from different tables or passages of the source.

Tests used:
anaphylactic shock = assay: Adjuvant for anaphylactic shock (beef seric albumin); format: in vivo, mice; settings: intraplantary, admixed with antigen; antigen intravenously 8 days later
Text: C. Adjuvant for anaphylactic shock
The administration to animals of a compound capable of stimulating the activity of immunitary systems leads to an increase in response to administration of antigen to which the animal is sensitive. Male mice weighing between 30 to 35 g were sensitized by intraplantary administration of beef seric albumin. 8 days later, the mice received intraveinously an antigen and under the minimum sensibilization conditions, the control animals were not in mortal shock at the time of the last administration.
The active dose which provoked a mortality equal to or greater than 50% of the animals was determined and the results are reported in Table I.

mice = assay: Acute toxicity; format: in vivo; settings: orally
IgE production = assay: Potentialization of IgE production (passive cutaneous anaphylaxia test); format: in vivo, mice; settings: for minimal effective dose: Mus musculus, sc, read-out: active dose, potentialization of IgE production
Description: A. Potentialization of IgE production
Female mice weighing between 28 to 30 g were immunized by subcutaneous administration of an ovalbumin-alumina mixture on days 0 and 14 and serum was taken on the 21st day for dosage of IgE antibodies formed. The respective quantities of antigen (ovalbumin) and adjuvant (alumina) injected was selected so as to keep production of antibodies at a minimum. The test compounds were administered subcutaneously 3 hours before the first immunization.
The research of the larger dilution of serum which gives a spot of a 11 to 13 mm diameter for each animal is made. An adequate dilution of serum was injected intradermally with a volume of 0.1 ml in male rats weighing about 250 g in the region of the back. 48 hours later, the animals received veinously 0.5 ml of a solution of 0.5% of ovalbumin and 1% of Evans blue in an isotonic solution of sodium chloride. 30 minutes after this injection, the animals were killed by exsanguination and the diameter of the blue spot on turned over skin is measured.

secondary arthritis = assay: Adjuvant for chronic arthritis (Freund type adjuvant); format: in vivo, rat; settings: for ED50: Rattus norvegicus, read-out: active dose which diminished the secondary inflammation by at least 50%
Description: B. Adjuvant for chronic arthritis
The injection of a Freund type adjuvant (Mycobacterium butyricum at 6 mg/ml in Bayol 55) into the posterium paw of a rat provokes a primary inflammatory lesion and then after a latency period of 13 to 15 days, initiation of secondary inflammation affecting the other non-injected rear paw as well as the front paws, the ears and the tail.
Male rats aged 42 to 50 days received an intraplantary injection of 0.10 ml of Freund adjuvant and treatment started the day of the adjuvant injection and continued until the animals were killed on the 17th day. […] In this test, the effect on secondary inflammations was essentially observed, it was determined by the arthritis of the non-injected rear paw, arthritis of the front paws and the inflammation of the ears and tail.

[1] = tested on: rosettes to sheep red corpuscles; assay: Test of Rosettes to sheep red corpuscles; format: in vivo, rats; settings: Rattus norvegicus, po, 24 h, read-out: immunostimulating dose which multiplied by 2 the percentage of rosettes observed in the control animals
Text: D. Test of Rosettes to sheep red corpuscles
The administration to animals of a product capable of stimulating the immunitary systems leads to an increase of their capacity of reaction to the injection of an immunogenic product. 3 month old male rats were sensibilized by intraperitoneal administration of sheep erythrocytoes on day 0 and 7 days later, the spleen was removed and splenocytes were placed in contact with sheep erythrocytes. The percentage of leucocytes around the erythrocytes in the form of rosettes was determined. The test compounds were orally administered daily from day-1 to day 1 and immunostimulating dose is the dose of product which multiplied by 2 the percentage of rosettes observed in the control animals and the results are reported in Table II.

[2] = orally, daily from day -1 to day 1

SMILES	active dose which provoked a mortality equal to or greater than 50% of the animals (anaphylactic shock)	DL0 (lethal dose LD0, maximum dose which did not cause any mortality after 8 days) (mice)	ED (2-fold rosettes) [1, 2]	further results
C[C@H](O)[C@@]1(O)CC[C@H]2[C@@H]3CC[C@H]4C[C@H](NC(=O)CN)CC[C@]4(C)[C@H]3CC[C@@]21C [Example 10, 2-amino-N-[(20S) 5α-pregnane-17α,20-diol-3α-yl]-acetamide hydrochloride]	1 mg per animal	≥ 600 mg/kg	–	–
C[C@H](O)[C@H]1CC[C@H]2[C@@H]3CC[C@H]4C[C@H](NC(=O)CN)CC[C@]4(C)[C@H]3CC[C@]12C.Cl [Product A, (20S) 3α-[(aminoacetyl)-amino]-5α-pregnane-20-ol hydrochloride]	–	–	–	minimal effective dose (IgE production): 0.5 mg/kg; immunostimulating activity in IgE test (in words) (IgE production; subcutaneous, compared with Levamisole): greater immunostimulating activity than Levamisole; ED50 (secondary arthritis; sc): 1 mg/kg; activity against secondary phenomena of arthritis of adjuvant (in words) (secondary arthritis; subcutaneously, compared with Levamisole): very active against secondary phenomena of arthritis of adjuvant
C[C@H](O)[C@H]1CC[C@H]2[C@@H]3CC[C@H]4C[C@H](NC(=O)CNC(=O)CN)CC[C@]4(C)[C@H]3CC[C@]12C [Example 8]	1 mg per animal	≥ 400 mg/kg	–	–
C[C@H](O)[C@H]1CC[C@H]2[C@@H]3CC[C@H]4C[C@H](NC(=O)[C@@H](N)CO)CC[C@]4(C)[C@H]3CC[C@]12C [Example 4]	–	≥ 400 mg/kg	–	–
C[C@H](O)[C@H]1CC[C@H]2[C@@H]3CC[C@H]4C[C@H](N(C)C(=O)CN)CC[C@]4(C)[C@H]3CC[C@]12C.Cl [Example 15, 2-amino-N-[(20S) 5α-pregnane-20-ol-3α-yl]-N-methyl-acetamide hydrochloride]	0.5 mg per animal	≥ 200 mg/kg	–	ED (2-fold rosettes) [1]: 10 mg/kg
C[C@H](O)[C@H]1CC[C@H]2[C@@H]3CC[C@H]4C[C@H](NC(=O)[C@@H]5CCCN5)CC[C@]4(C)[C@H]3CC[C@]12C [Example 7]	2 mg per animal	≥ 800 mg/kg	> 5 mg/kg	–
CCOC(=O)N[C@@H]1CC[C@@]2(C)[C@@H](CC[C@@H]3[C@@H]2CC[C@]2(C)[C@@H]([C@H](C)O)CC[C@@H]32)C1 [Example 14, Ethyl N-[(20S)5α-pregnane-20-ol-3α-yl]-carbamate]	5 mg per animal	≥ 400 mg/kg	–	–
CC(=O)[C@@]1(O)CC[C@H]2[C@@H]3CC[C@H]4C[C@H](NC(=O)CN)CC[C@]4(C)[C@H]3CC[C@@]21C [Example 12, 2-amino-N-[(5α-pregnane-17α-ol-20-one-3α-yl]-acetamide hydrochloride]	–	–	5 mg/kg	–
C[C@H](O)[C@H]1CC[C@H]2[C@@H]3CC[C@H]4C[C@H](NC(=O)CN)CC[C@@H]4[C@H]3CC[C@]12C [Example 11, 2-amino-N-[(20S) 19-nor-5α-pregnane-20-ol-3α-yl]-acetamide hydrochloride]	0.5 mg per animal	≥ 400 mg/kg	5 mg/kg	–
C[C@H](O)[C@H]1CC[C@H]2[C@@H]3CC[C@H]4C[C@H](NC(=O)c5cccnc5)CC[C@]4(C)[C@H]3CC[C@]12C [Example 9, N-[(20S)5α-pregnan-20-ol-3α-yl]-3-pyridinecarboxamide]	5 mg per animal	–	5 mg/kg	–
c1ccc([C@H]2CN3CCSC3=N2)cc1 [Levamisole, reference compound]	–	–	–	minimal effective dose (IgE production; subcutaneous, 3 hours before first immunization, ovalbumin-alumina): 20 mg/kg; ED50 (secondary arthritis; po, orally, treatment from day of adjuvant injection to 17th day): 50 mg/kg
C[C@H](O)[C@H]1CC[C@H]2[C@@H]3CC[C@H]4C[C@H](NC(=O)[C@@H](N)Cc5c[nH]c6ccccc56)CC[C@]4(C)[C@H]3CC[C@]12C [Example 6, (2S) 2-amino-N-[(20S) 5α-pregnane-20-ol-3α-yl]-1H-indol-3-propanamide]	5 mg per animal	≥ 1000 mg/kg	2 mg/kg	–
C[C@H](O)[C@H]1CC[C@H]2[C@@H]3CC[C@H]4C[C@H](NC(=O)[C@@H](N)Cc5ccccc5)CC[C@]4(C)[C@H]3CC[C@]12C [Example 5]	5 mg per animal	≥ 400 mg/kg	–	–
C[C@H](N)C(=O)N[C@@H]1CC[C@@]2(C)[C@@H](CC[C@@H]3[C@@H]2CC[C@]2(C)[C@@H]([C@H](C)O)CC[C@@H]32)C1 [Example 2, (2S) 2-amino-N-[(20S)-5α-pregnan-20-ol-3α-yl]-propanamide]	0.5 mg per animal	200 mg/kg	1 mg/kg	–
C[C@H](O)[C@H]1CC[C@H]2[C@@H]3CC[C@H]4C[C@H](NC(=O)[C@@H](N)CCC(=O)O)CC[C@]4(C)[C@H]3CC[C@]12C [Example 3]	≤ 1 mg per animal	≥ 400 mg/kg	–	–
